# Test results as given in US4788069A (The Coca-Cola Company, priority 1987, dated 1988).
# Residues, ends and D or L forms follow the SMILES beside them.
# Columns and labels:
# [1] = Sweetness relative to sucrose, compounds tasted in aqueous solution; conditions: for Sweetness (x sucrose w/w): Table I, diastereomeric mixtures of L-aspartyl-3-(bicycloalkyl) D,L-alanine methyl esters
# Experimental: The 2R-endo- and 2R-exo-fenchyl esters described by Fujino, cited above, have sweetness of high intensity.
# In Table I, the reported sweetness is measured for diastereomeric mixtures. The sweetness of each optically pure compound according to the invention will differ from the sweetness of the mixture.
# The sweetness values of each compound shown in Table I correspond to a mixture of optical isomers, whose maximum theoretical number of isomers is listed. In order to evaluate the sweetness of different isomeric forms, four pairs of optical isomers of one of the novel compounds were synthesized. Each pair differed from the others only in the stereochemistry of the bicyclic camphor ring.
# [2] = cited from earlier work; for times sweeter than sucrose: prior art value, weight to weight stated for formula 1
molecule,measurement,setting,value
COC(=O)C(CC1CC2CCC1C2)NC(=O)[C@@H](N)CC(=O)O (stereo partly shown) [norbornyl],Sweetness (x sucrose w/w),[1],225 x sucrose w/w
COC(=O)[C@H](Cc1ccccc1)NC(=O)[C@@H](N)CC(=O)O [L-aspartyl-L-phenylalanine methyl ester] (H-Asp-Phe-OMe),times sweeter than sucrose,[2],about 180 times sweeter than sucrose
"COC(=O)C(CC1CC2CCC1C2)NC(=O)[C@@H](N)CC(=O)O (stereo partly drawn) [(R,S)endo norbornyl, L-Aspartyl-D,L-(endo-R,S-norbornyl)-3-alanine methyl ester]",Sweetness (x sucrose w/w),[1],290 x sucrose w/w
"COC(=O)C(CC1CC2CCC1C2)NC(=O)C(N)CC(=O)O [(R,S)exo norbornyl]",Sweetness (x sucrose w/w),[1],200 x sucrose w/w
COC(=O)C(NC(=O)[C@@H](N)CC(=O)O)C(=O)OC1C2(C)CCC(C2)C1(C)C (stereo partly drawn) [L-aspartyl-2-amino malonyl methyl fenchyl diester],times sweeter than sucrose,[2],"20,000 times sweeter than sucrose"
"CC12CCC(C1)C(C)(C)C2OC(=O)C(NC(=O)C(N)CC(=O)O)c1ccccc1 (stereo not drawn) [2R, exo-fenchyl ester]",sweetness intensity (in words),[2]; prior art fenchyl esters,high sweetness intensities
(alpha-carboxy) glycyl-3-norbornylalanine methyl ester,sweetness (in words),[1]; formula 4 tasted in aqueous solution,intensely sweet
